Assay results taken from ChEMBL document CHEMBL1142122, “Extending the record of meroditerpenes from Cacospongia marine sponges” (2007).
Values after ≈ are worked out from the molar mass of the structure shown.

Experiments:
Format in all cases: functional
Bacillus subtilis = experiment: Antimicrobial activity against Bacillus subtilis
Escherichia coli = experiment: Antimicrobial activity against Escherichia coli
[1] = tested on: Staphylococcus epidermidis; experiment: Antimicrobial activity against Staphylococcus epidermidis

Row | SMILES | MIC (Bacillus subtilis) [µg/mL] | MIC (Escherichia coli) [µg/mL] | MIC [1] [µg/mL]
1 | C=C(C)CCC[C@@]1(C)CCC[C@@]2(C)[C@H](Cc3cc(C(=O)O)ccc3O)C(=C)CC[C@H]12 | > 400 | > 400 | 2.5 (≈ 6.09 µM)
2 | CC1=C(CC/C(C)=C/CC/C(C)=C/Cc2cc(C(=O)O)ccc2O)C(C)(C)CCC1 [CACOSPONGIN D] | > 400 | > 400 | 20 (≈ 48.7 µM)
3 | CC1=C(CC/C(C)=C/CC/C(C)=C/Cc2cc(O)ccc2O)C(C)(C)CCC1 [JASPAQUINOL] | > 400 | > 400 | 5 (≈ 13.1 µM)
4 | CC(C)=CCC[C@@]1(C)CCC[C@]2(C)[C@@H](Cc3cc(C(=O)O)ccc3O)C(C)=CC[C@@H]12 [JASPIC ACID] | > 400 | > 400 | 2.5 (≈ 6.09 µM)
